According to ChEMBL document CHEMBL3392922, “MMV box screening in the Dd2 P. falciparum strain”:

Tested on: Plasmodium falciparum
Test: MMV: IC50 determined against P. falciparum Dd2-luc strain using a Malaria Sybr Green I Fluorescence assay. Starting conditions were 1% trophozoite synchronised parasites at 2% haematocrit. Fluorescence detection completed after 48hr incubation at 37 degrees C under 1% O2, 3% CO2 and balance N2.
Assay type: functional, organism-based
Conditions: Dd2, 48 h

| Structure (SMILES) | IC50 [nM] |
| --- | --- |
| CCCN(CCC)CC(O)COc1ccccc1C(=O)Nc1ccccc1 (stereo not given) | 209 |
| CCC(c1ccccc1)c1nn2c(-c3cccs3)nnc2s1 (stereo not given) | 338 |
| Cc1ccc(-c2cc3nc4c(c(O)n3n2)CCCC4)cc1 | 1780 |
| CCCC(c1nnnn1C1CCCCC1)N1CCN(C(=O)c2ccco2)CC1 (stereo not given) | 518 |
| c1ccc(/C2=N/c3ccccc3/N=C(/c3ccccc3)c3ccccc32)cc1 | 638 |
| COc1cc2c3cc1Oc1c(OC)c(OC)cc4c1C(Cc1ccc(O)c(c1)Oc1ccc(cc1)CC3N(C)CC2)N(C)CC4 (stereo not given) | 692 |
| C=CC12CCN(CC1)C(C(O)c1ccnc3ccc(OC)cc13)C2 (stereo not given) | 418 |
| Cc1cc(Nc2ccc(OCc3ccccc3)cc2)nc2cc(O)ccc12 | 296 |
| COc1cc2c(cc1OC)C1=NNC(=O)C1=NC(C)(C)C2 | 732 |
| Cn1c(=O)n(C)c2cc(CNCCNc3ccnc4cc(Cl)ccc34)ccc21 | 197 |
| COCCn1c(C)nc2ccccc2c1=O | 930 |
| CSc1ccccc1C(=O)Nc1nc(-c2ccccn2)cs1 | 1800 |
| CC(C)(C)c1ccc(O)c(CNC2CCCCC2)c1 | 181 |
| Cc1ccc(-c2cc3c(nn2)-c2ccccc2C3=O)cc1 | 1260 |
| CCOc1cc2c(cc1OCC)C(c1cc(Cl)c(O)c(OCC)c1)NCC2 (stereo not given) | 1610 |
| CCn1c(SCC(=O)Nc2cc(C(F)(F)F)ccc2Cl)nc2ccccc2c1=O | 903 |
| CCN1CCN(Cc2ccc(NC(=O)c3cc4ccc5cccnc5c4[nH]3)cc2)CC1 | 665 |
| COc1ccc(C(=O)C2CC2c2ccc(Cl)cc2)cc1 (stereo not given) | 3290 |
| O=C(NC(c1ccccc1)c1ccc2cccnc2c1O)c1ccccc1 (stereo not given) | 426 |
| O=C(Nc1ccc(N2CCCCC2)c(Cl)c1)c1ccc(Br)o1 | 559 |
| CCOC(=O)c1c(NC(=O)c2ccccc2)sc2c(O)c(CN(CC)CC)ccc12 | 127 |
| CCCOCc1cc(CN2CCN(c3cccc(Cl)c3)CC2)c(O)c2ncccc12 | 961 |

| Structure (SMILES) | IC50 [nM] |
| --- | --- |
| Oc1c2c(nc3cc(-c4ccccc4)nn13)CCCC2 | 1560 |
| CCCCCn1c(=N)n(CC(O)COc2cccc(C)c2)c2ccccc21 (stereo not given) | 2350 |
| O=C(Nc1cccc(C2=NCCN2)c1)Nc1cccc(C2=NCCN2)c1 [IMIDOCARB] | 332 |
| COc1cccc(-c2nn(C)c3sc(C(=O)NCCN4CCN(c5ccccc5F)CC4)cc23)c1 | 1910 |
| c1ccc(-c2ccc(-c3nc4ccccc4[nH]3)cc2)cc1 | 2000 |
| O=C(NCc1ccco1)C1CCN(S(=O)(=O)c2ccc(Br)cc2)CC1 | 901 |
| COc1ccc(-n2ccnc2SCC(=O)Nc2cc(C)ccc2C)c(OC)c1 | 351 |
| Nc1ccc(-c2nc3cc(Cc4ccc5[nH]c(-c6ccc(N)cc6)nc5c4)ccc3[nH]2)cc1 | 1820 |
| COc1ccc(NC(=O)C2c3ccccc3C(=O)N(CC(C)C)C2c2cccs2)cc1 (stereo not given) | 1260 |
| CCOc1cc(CNC(C)C(O)c2ccccc2)cc(Cl)c1OCC (stereo not given) | 1910 |
| CN(C)c1ccc(N=Cc2ccc(N3CCOCC3)cc2)cc1 | 345 |
| CC1CC2=C(CC1CNCCCN(C)C)C(C)(C)CCC2 (stereo not given) | 476 |
| CCOc1cc2c(cc1OCC)C(c1cc(Cl)ccc1O)NCC2 (stereo not given) | 1700 |
| COc1ccc(Nc2cc(C)nc(NCc3ccccc3)n2)cc1 | 311 |
| CN(C)CCNc1cc(-c2ccccc2)nc2ccccc12 | 3650 |
| O=C(NCC(c1ccsc1)N1CCCCCC1)c1ccc(C(F)(F)F)cc1 (stereo not given) | 467 |
| CCOC(=O)C1=CN(C)C=C(C(=O)OCC)C1c1cc(Br)c(OCC)c(OC)c1 | 458 |
| O=C(CCc1ccco1)NC1CCN(CC2(c3ccc(Cl)cc3)CCC2)CC1 | 1030 |
| O=c1cc(NC2CCN(CCCc3ccccc3)CC2)c2cc(Cl)ccc2o1 | 543 |
| CCCCCCc1cc(O)c2c3c(c(=O)oc2c1)CCC(C)C3 (stereo not given) | 568 |
| COc1ccc2nc(C)cc(Nc3ccc(Cl)cc3)c2c1 | 1180 |
| CC(C)c1ccc(CNCC(O)c2ccccc2)cc1 (stereo not given) | 1080 |

| Structure (SMILES) | IC50 [nM] |
| --- | --- |
| CCOc1ccccc1CN1CCc2nc3cc(C(C)(C)C)nn3c(O)c2C1 | 1220 |
| CCN(CC)CCNc1ncnc2c1[nH]c1ccc(Cl)cc12 | 373 |
| O=C(NC1CCN(Cc2ccccc2)CC1)c1cc(C(=O)NC2CCN(Cc3ccccc3)CC2)cc(C(=O)NC2CCN(Cc3ccccc3)CC2)c1 | 264 |
| CCc1ccc(Nc2cc(C)c3ccc(O)cc3n2)cc1 | 316 |
| COc1ccc(C(=O)NC(c2ccccc2Cl)c2cc(Cl)c3cccnc3c2O)cc1 (stereo not given) | 978 |
| Brc1ccc(Nc2nc3ccccc3nc2Nc2ccc(Br)cc2)cc1 | 1510 |
| CCOc1ccccc1NC(=O)CN1CCN(C(=O)c2ccco2)CC1 | 2900 |
| CCc1ccc(Nc2cc(C)nc3nc(C)nn23)cc1 | 691 |
| CC(=O)c1ccc(NC(=O)CSc2nc(-c3ccccc3Cl)ns2)cc1 | 1690 |
| Cc1ccc(Nc2nc(NCCO)c3ccccc3n2)cc1C | 987 |
| Clc1ccc2[nH]c3c(NCCCN4CCOCC4)ncnc3c2c1 | 617 |
| Oc1ccccc1CNCC12CC3CC(CC(C3)C1)C2 | 283 |
| COc1cccc(Nc2nc(N)c3ccccc3n2)c1 | 3110 |
| Cc1ccc(CSCc2ccc(C(=O)NC3CC3)o2)cc1 | 550 |
| O=[N+]([O-])c1ccc(C=NNc2nc3ccccc3[nH]2)cc1 | 242 |
| COc1ccc(Nc2nc(NCc3ccccc3)c3ccccc3n2)cc1 | 90.6 |
| CCOC(=O)C1CCN(C(=O)CN2C(=O)c3ccccc3C2c2c[nH]c3ccccc23)CC1 (stereo not given) | 512 |
| O=C(NCCCN1CCC(N2CCCCC2)CC1)C1=Cc2cc(Br)ccc2OC1 | 965 |
| CC(C)(C)C(=O)Nc1ccc(C(=O)Nc2cccc(-c3nc4ccccc4[nH]3)c2)cc1 | 753 |
| O=C(NCC1Cc2cccc(-c3ccncc3)c2O1)c1csc2c1CCCC2 (stereo not given) | 1690 |
| OC(Cn1nnc2ccccc21)Cn1c2ccc(Br)cc2c2cc(Br)ccc21 (stereo not given) | 2030 |
| Cc1ccc2cc3c(N)c4c(C)ccc(C)c4nc3nc2c1 | 1440 |

| Structure (SMILES) | IC50 [nM] |
| --- | --- |
| N=c1n(CCN2CCCCC2)c2ccccc2n1CC(O)c1cccc(Br)c1 (stereo not given) | 1110 |
| CN1c2ccccc2N(C)C1c1ccc2c(c1)OCO2 | 1150 |
| COc1ccc(-c2nonc2NC(=O)c2cccc(Cl)c2)cc1OC | 1330 |
| CC1(c2ccccc2)Nc2ccccc2-c2nc3ccccc3n21 (stereo not given) | 263 |
| O=C(Nc1ccccc1O)c1ccc(Oc2cccc(C(=O)Nc3ccccc3O)c2)cc1 | 202 |
| O=C(Nc1cccc(C(F)(F)F)c1)c1cc(Cl)ccc1O | 1090 |
| Cc1cc(Nc2cccc(F)c2)nc(NCc2ccccc2)n1 | 544 |
| Cc1cc(Nc2ccc(C)c(Cl)c2)n2nc(C(F)(F)F)nc2n1 | 1240 |
| CCOc1ccc2nc(C)cc(Nc3ccc(N(C)C)cc3)c2c1 | 998 |
| CCOC(=O)C1(Cc2ccccc2)CCN(Cc2cccc(OC)c2O)CC1 | 2200 |
| COc1ccc2c(c1)C1(Nc3ccccc3-c3nc4ccccc4n31)C(=O)N2 (stereo not given) | 239 |
| COc1cc(OC)c(N(C)C(=O)c2cc3c(s2)-c2ccccc2S(=O)(=O)C3)cc1Cl | 298 |
| COc1nc(Nc2ccc(C(C)C)cc2)nc(OC)n1 | 365 |
| CCOc1c(Br)cc(C2C(C(=O)OC)=CN(C)C=C2C(=O)OC)cc1OC | 789 |
| O=C(CSc1ccc2nnc(-c3cccc(F)c3)n2n1)Nc1ccc2c(c1)OCO2 | 541 |
| FC(F)(F)c1cccc(Nc2nc3ccccc3nc2Nc2cccc(C(F)(F)F)c2)c1 | 739 |
| CC(C)CNC(=O)c1c(N)n(CCc2ccccc2F)c2nc3ccccc3nc12 | 680 |
| Oc1ccccc1CN1CCN(C(c2ccccc2)c2ccccc2)CC1 | 959 |
| O=c1nc(C=Cc2ccc(Br)cc2)oc2ccccc12 | 5930 |
